This assay has as its target T1, hP2X4R (Homo sapiens, UniProt Q99571).
T1 construct: expressed in transfected cells; host or cells: Xenopus laevis oocytes (cRNA injection)
T1 sequence (Q99571 1-388): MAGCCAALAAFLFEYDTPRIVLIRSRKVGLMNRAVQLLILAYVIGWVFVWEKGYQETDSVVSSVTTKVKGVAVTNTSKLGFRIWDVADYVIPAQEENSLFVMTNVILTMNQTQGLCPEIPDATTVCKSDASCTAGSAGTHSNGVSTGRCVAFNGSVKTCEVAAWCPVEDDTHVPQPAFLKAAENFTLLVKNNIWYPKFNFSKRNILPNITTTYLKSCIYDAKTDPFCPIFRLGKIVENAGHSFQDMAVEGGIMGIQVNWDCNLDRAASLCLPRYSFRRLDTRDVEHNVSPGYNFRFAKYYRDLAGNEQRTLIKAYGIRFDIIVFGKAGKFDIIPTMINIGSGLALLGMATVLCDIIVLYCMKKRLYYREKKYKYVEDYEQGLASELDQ
Kind of assay: TEVC of ATP-induced currents, hP2X4R in X. laevis oocytes (steady-state protocol). Type of assay: cell-based. The source says: Oocyte expression plasmids encoding the wild-type (wt) and N-terminally His-tagged (His-) fusion constructs of the hP2X2R, hP2X3R, hP2X4R, and hP2X7R, and the mutant His-^20RMVL^23KVIV^23S^26N-hP2X1R, S^15V-rP2X3R, and His-S^15V-hP2X3R were the same as used in previous research ([Hausmann et al., 2006]; [Wolf et al., 2011]; [Hausmann et al., 2014]; [Obrecht et al., 2019]). In most cases, the N-terminal His-tagged variants of P2XRs were used here and in the previous studies to allow biochemical analyses on affinity-purified proteins using the same constructs. Although this was not required for the present study, it allows for better comparability with our previous studies. […]
Ion currents mediated by P2X receptors were evoked by the indicated concentration of ATP or α,β-meATP and were recorded 1 or 2 days after cRNA injection at ambient temperature at a holding potential of −60 mV by two-electrode voltage clamp (TEVC) as previously described ([Hausmann et al., 2006]). […]

The results in this text go back to publication PMC10060569 (Frontiers in Pharmacology, 2023).

For orientation: IC50 means the concentration at which inhibition is half-maximal. In general, inhibition refers to the change of the read-out against control, counted positive when it falls. The molecule `O=C(O)Cc1ccccc1Nc1c(Cl)cccc1Cl` [Diclofenac, diclofenac] registered an IC50 (10 µM ATP, steady-state protocol, X. laevis oocytes) of 1110 µM. Besides, for the setting “read-out: Max. inhibition at 1 mM”, the inhibition at 1000 µM stood at 61.2%.
